From US9511070B2, “Heterocyclyl carboxamides for treating viral diseases” (NOVADRUG, LLC, priority 2012, dated 2016)
“Also recorded” adds a separate entry of the source.

What was measured:
JFH-1 HCV [1] = test: Co-therapy treatment for HCV infection (intracellular HCV RNA, with and without IFN-β-1b); assay type: cell-based, Hepatitis C virus; conditions: for Fold Inhibition: vs untreated control
Procedure: (§1) Briefly, 6×10^3 Huh7-1 cells are incubated overnight in each well of collagen-coated BioCoat 96-well plates (BD Biosciences, Bedford, Mass.) in 0.2 ml 10% medium composed of Dulbecco's modified Eagle's medium supplemented with 10% fetal bovine serum. Subsequently, at 2 day intervals, the cultures are replenished with fresh 0.2 ml 10% medium. After the cultures become confluent, they continue to be replenished at 2 day intervals with fresh 0.2 ml 10% medium that also includes 1% dimethyl sulfoxide (DMSO). After 20 days of these replenishments, the Huh7-1 cultures are incubated with fresh 1% medium (same as 10% medium except that the serum level is 1%) containing HCV at a multiplicity of infection (MOI) of 0.05 focus forming units (ffu)/cell. The HCV (JFH-lwt Huh7) stock titer is 1.5×10^5 ffu/mL. The next day (day 1 post-infection) and 2 days later (day 3 post-infection) the media are replenished with fresh 1% medium containing the test compounds dissolved in DMSO. On the 5th day of treatment with the compounds, cell lysates are collected for RNA isolation and Real Time-quantitative Reverse Transcription Polymerase Chain Reaction (RT-qPCR) and culture media are collected for cytotoxicity analysis.
(§2) Total RNA is isolated from cells by the guanidine thiocyanate method using standard protocols. One μg RNA is used for cDNA synthesis using TaqMan reverse transcription reagents (Applied Biosystems, Foster City, Calif.) followed by real-time PCR using an Applied Biosystems 7300 real-time thermocycler. Thermal cycling consists of initial denaturation of 10 min at 95° C. followed by 40 cycles of denaturation (15 s at 95° C.) and annealing/extension (1 m at 60° C.). HCV and human glyceraldehyde-3-phosphate dehydrogenase (GAPDH) RNA levels are determined relative to a standard curve of serial dilutions of plasmid containing JFH-1 HCV or GAPDH cDNA. The PCR primers used to detect GAPDH and HCV are: GAPDH (NMX002046) 5′-[…]-3′(SEQ ID NO: 16) (sense) and 5′-[…]-3′(SEQ ID NO: 17) (anti-sense) JFH-1 HCV (AB047639) 5′-[…]-3′(SEQ ID NO: 18) (sense) and 5′-[…]-3′(SEQ ID NO: 19) (anti-sense).
Co-therapy Treatment for HCV Infection. […] The compounds described herein are tested to determine whether they increase the efficacy of either RBV, IFN-β-1b, or a combination thereof. Using the protocol described for determining chemical-evoked reduction in intracellular HCV RNA, the cells are treated with and without 10 U/mL IFN-β-1b in combination with 2.5 or 10 μM of the compounds described herein and for comparison with 10 μM MA and 80 μM RBV.

JFH-1 HCV [2] = conditions: viral titer at 5 μM or 15 μM compared to untreated control
Description: In vitro assay for anti-HCV efficacy. HCV studies typically involve infected patients and chimpanzees. However, recently, a robust HCV infection system was developed with cells derived from the Huh-7 human hepatoma cell line. It is based on the unique JFH-1 HCV consensus cDNA derived from an HCV patient. Using reverse genetics, the infectious virus can be rescued from this HCV clone. The recovered viable JFH virus can be passaged serially in Huh-7 cells. For this reason, this system is amenable for evaluating the activity of test compound for their anti-HCV efficacy.
as §1, §2

Row | Structure (SMILES) | HCV Antiviral Activity (JFH-1 HCV [2]) | further results
1 | O=C(Nc1cccc(-c2cccc(F)c2)c1)C1CCN(Cc2cccc3cccnc23)CC1 [Example 16] | ++ (“++” corresponds to ≦60% viral titer at 5 μM) | Average HCV copies/μg RNA (JFH-1 HCV [1]; 2.5 μM +IFN-β-1b (10 U/mL)): 1.1 × 10^5 copies/μg RNA; Fold Inhibition (JFH-1 HCV [1]; 2.5 μM +IFN-β-1b (10 U/mL)): 85 fold; Average HCV copies/μg RNA (JFH-1 HCV [1]; 2.5 μM, alone): 3.3 × 10^6 copies/μg RNA; Fold Inhibition (JFH-1 HCV [1]; 2.5 μM, alone): 3 fold; Average HCV copies/μg RNA (JFH-1 HCV [1]; 10 μM +IFN-β-1b (10 U/mL)): 9.6 × 10^4 copies/μg RNA; Fold Inhibition (JFH-1 HCV [1]; 10 μM +IFN-β-1b (10 U/mL)): 97 fold; Average HCV copies/μg RNA (JFH-1 HCV [1]; 10 μM, alone): 2.0 × 10^6 copies/μg RNA; Fold Inhibition (JFH-1 HCV [1]; 10 μM, alone): 5 fold; reduction of intracellular HCV RNA levels by the combination with IFN-β-1b (in words) (JFH-1 HCV [1]; combination with IFN-β-1b): more effective than that achieved with RBV; also recorded: reduces intracellular HCV RNA levels more effectively than either agent alone
2 | COc1ccccc1/C=C/CN1CCC(C(=O)Nc2ccc(-n3nc(C)cc3C)cc2)CC1 [Example 66] | + (“+” corresponds to ≦60% viral titer at 15 μM) | –
3 | CCc1nc(CN2CCC(C(=O)Nc3cccc(-c4cccc(F)c4)c3)CC2)c(C)[nH]1 [Example 68] | + (“+” corresponds to ≦60% viral titer at 15 μM) | –
4 | COc1cccc(-c2cccc(NC(=O)C3CCN(CC=C(C)C)CC3)c2)c1 [Example 69] | ++ (“++” corresponds to ≦60% viral titer at 5 μM) | –
5 | COc1cccc(CN2CCC(C(=O)Nc3ccc(Oc4ccccc4F)cc3)CC2)c1 [Example 70] | + (“+” corresponds to ≦60% viral titer at 15 μM) | –
6 | COc1cccc(-c2ccccc2NC(=O)C2CCN(Cc3cccc4ccccc34)CC2)c1 [Example 71] | + (“+” corresponds to ≦60% viral titer at 15 μM) | –
7 | C=CCn1cc(CN2CCC(C(=O)Nc3cccc(-c4cccc(Cl)c4)c3)CC2)c(C)n1 [Example 72] | + (“+” corresponds to ≦60% viral titer at 15 μM) | –
8 | CCCn1ncc(CN2CCC(C(=O)Nc3ccc(Oc4ccccc4F)cc3)CC2)c1C [Example 73] | + (“+” corresponds to ≦60% viral titer at 15 μM) | –
9 | CCN1CCC(N2CCC(C(=O)Nc3ccc(Oc4ccccc4F)cc3)CC2)CC1 [Example 75] | +++ (“+++” corresponds to ≦30% viral titer at 5 μM) | –
10 | Cc1nn(C(C)C)c(C)c1CN1CCC(C(=O)Nc2cccc(-c3cccc(F)c3)c2)CC1 [Example 76] | ++ (“++” corresponds to ≦60% viral titer at 5 μM) | –
11 | O=C(Nc1ccc(Oc2ccccc2)nc1)C1CCN(Cc2ccccc2)CC1 [Example 77] | ++ (“++” corresponds to ≦60% viral titer at 5 μM) | –
12 | CCn1cc(CN2CCC(C(=O)Nc3cccc(-c4cccc(Cl)c4)c3)CC2)cn1 [Example 78] | ++ (“++” corresponds to ≦60% viral titer at 5 μM) | –
13 | Cc1nc(C)c(CN2CCC(C(=O)Nc3cccc(-c4cccc(F)c4)c3)CC2)nc1C [Example 79] | ++ (“++” corresponds to ≦60% viral titer at 5 μM) | –
14 | CCCn1ncc(CN2CCC(C(=O)Nc3ccccc3-c3cccc(OC)c3)CC2)c1C [Example 80] | + (“+” corresponds to ≦60% viral titer at 15 μM) | –
15 | COc1ccc(O)c(CN2CCC(C(=O)Nc3ccc(Oc4ccccc4F)cc3)CC2)c1 [Example 81] | ++ (“++” corresponds to ≦60% viral titer at 5 μM) | –
16 | CC(C)n1cc(CN2CCC(C(=O)Nc3cccc(-c4cccc(Cl)c4)c3)CC2)cn1 [Example 82] | + (“+” corresponds to ≦60% viral titer at 15 μM) | –

Row | Structure (SMILES) | HCV Antiviral Activity (JFH-1 HCV [2]) | further results
17 | O=C(Nc1ccc(Oc2ccccc2)nc1)C1CCN(Cc2ccc(Cl)s2)CC1 [Example 83] | ++ (“++” corresponds to ≦60% viral titer at 5 μM) | –
18 | COc1cccc(CN2CCC(C(=O)Nc3cccc(-c4cccc(F)c4)c3)CC2)c1OC [Example 84] | + (“+” corresponds to ≦60% viral titer at 15 μM) | –
19 | COc1cc(CN2CCC(C(=O)Nc3ccc(Oc4ccccc4F)cc3)CC2)ccc1O [Example 85] | ++ (“++” corresponds to ≦60% viral titer at 5 μM) | –
20 | CC(C)Cc1cc(CN2CCC(C(=O)Nc3ccc(Oc4ccccc4F)cc3)CC2)n[nH]1 [Example 86] | + (“+” corresponds to ≦60% viral titer at 15 μM) | –
21 | COc1cccc(-c2ccccc2NC(=O)C2CCN(Cc3nc(C)c(C)nc3C)CC2)c1 [Example 87] | ++ (“++” corresponds to ≦60% viral titer at 5 μM) | –
22 | COc1cccc(-c2ccccc2NC(=O)C2CCN(Cc3cc(C)ccc3C)CC2)c1 [Example 88] | + (“+” corresponds to ≦60% viral titer at 15 μM) | –
23 | O=C(Nc1cccc(-c2cccc(F)c2)c1)C1CCN(Cc2ccc3nsnc3c2)CC1 [Example 90] | + (“+” corresponds to ≦60% viral titer at 15 μM) | –
24 | COc1cccc(CN2CCC(C(=O)Nc3cccc(-c4cccc(F)c4)c3)CC2)c1O [Example 91] | ++ (“++” corresponds to ≦60% viral titer at 5 μM) | –
25 | O=C(Nc1ccc(-c2nc3ccccc3[nH]2)cc1)C1CCN(CC2CC=CCC2)CC1 (centres unmarked) [Example 92] | + (“+” corresponds to ≦60% viral titer at 15 μM) | –
26 | C=CCn1cc(CN2CCC(C(=O)Nc3cccc(-c4cccc(F)c4)c3)CC2)c(C)n1 [Example 93] | ++ (“++” corresponds to ≦60% viral titer at 5 μM) | –
27 | Cc1ccc(CN2CCC(C(=O)Nc3ccc(Oc4ccccc4F)cc3)CC2)o1 [Example 94] | + (“+” corresponds to ≦60% viral titer at 15 μM) | –
28 | CCn1ncc(CN2CCC(C(=O)Nc3cccc(-c4cccc(F)c4)c3)CC2)c1C [Example 95] | ++ (“++” corresponds to ≦60% viral titer at 5 μM) | –
29 | O=C(Nc1ccc(-c2nc3ccccc3[nH]2)cc1)C1CCN(Cc2cccc(F)c2)CC1 [Example 96] | + (“+” corresponds to ≦60% viral titer at 15 μM) | –
30 | CCn1cc(CN2CCC(C(=O)Nc3ccc(Oc4ccccc4F)cc3)CC2)cn1 [Example 97] | ++ (“++” corresponds to ≦60% viral titer at 5 μM) | –
31 | O=C(Nc1cccc(-c2cccc(Cl)c2)c1)C1CCN(Cc2ccccn2)CC1 [Example 98] | + (“+” corresponds to ≦60% viral titer at 15 μM) | –
32 | NC(=O)c1ncn([C@@H]2O[C@H](CO)[C@@H](O)[C@H]2O)n1 [RBV, ribavirin, reference compound] | – | Average HCV copies/μg RNA (JFH-1 HCV [1]; 80 μM +IFN-β-1b (10 U/mL)): 1.8 × 10^5 copies/μg RNA; Fold Inhibition (JFH-1 HCV [1]; 80 μM +IFN-β-1b (10 U/mL)): 52 fold; Average HCV copies/μg RNA (JFH-1 HCV [1]; 80 μM, alone): 5.0 × 10^6 copies/μg RNA; Fold Inhibition (JFH-1 HCV [1]; 80 μM, alone): 2 fold
